# Test results from patent US20100021893A1, “Modulators of lanosterol synthetase for treating acne or hyperseborrhea” (GALDERMA RESEARCH & DEVELOPMENT, priority 2006, published 2010).
# Tested on: mRNA for lanosterol synthetase in the mouse preputial gland
# Conditions: gonadectomized male mice, short-term treatment, Affymetrix, effect visible at 18, 24 and 96 hours
# Protocol: The expression of the genes was analyzed on an Affymetrix station (microfluidic model; hybridization oven; scanner; computer) following the protocols provided by the company. Briefly, the total RNA isolated from the tissues is transcribed to cDNA. From the double-stranded cDNA, a cRNA labeled with biotin is synthesized using T7 polymerase and a precursor NTP conjugated to biotin. The cRNAs are then fragmented to small sized fragments. All the molecular biology steps are checked using the Agilent “Lab on a chip” system in order to confirm the good efficiencies of the enzymatic reactions. The Affymetrix chip is hybridized with the biotinylated cRNA, rinsed and then fluorescence labeled using a fluorophore conjugated to streptavidin. After washings, the chip is scanned and the results are calculated using the MAS5 software provided by Affymetrix. An expression value is obtained for each gene as well as the indication of the significance of the value obtained. […]
# The gene expression was analyzed using the Affymetrix technology described above (FIG. 1A) and the results were then confirmed by the real-time PCR technique (FIG. 1B).
# B. Male mice were gonadectomized and were then treated with the vehicle or DHT. […] The RNA was isolated and the expression of the genes was analyzed by the Affymetrix technique. […]
smiles,measurement,value
"C[C@]12CCC(=O)C[C@@H]1CC[C@@H]1[C@@H]2CC[C@]2(C)[C@@H](O)CC[C@@H]12 [DHT, Dihydrotestosterone]",level of expression of the mRNA for lanosterol synthetase,induced
